One block for each compound: values may come before it.
What was measured:
[1] = Stability of biphenyl spiroiodine(III) ylide precursors; assay type: physicochemical
Excerpt: Experiments with derivatives of Meldrum's acid 8a and barbituric acid 9a, based on a challenging electron-neutral biphenyl substrate, provided radiochemical conversions of 47% and 53%, respectively. Analogs incorporating substituents on the nitrogen atoms of […] were relatively unstable at room temperature, and analogues with alkyl groups other than methyl on the quaternary carbon of diesters 9b-d were not crystalline. […] Cyclobutyl 10b and cyclopentyl 10c groups provided increased conversions, 70% and 85%, respectively.

[2] = Sterility testing in TSB and FTM media; conditions: TSB 20-25° C., FTM 30-35° C., 14 days
Protocol: Sterility testing was performed post-release and must be started within 30 hours from end of synthesis. [^18F]FPEB sample was inoculated into Trypitcase Soy Broth (TSB) and Fluid Thioglycollate Medium (FTM) media tubes. TSB tubes were incubated at 20-25° C. and FTM tubes were incubated at 30-35° C. for 14 days and must be free of culture growth after 14 days.

[3] = pH assay of the [^18F]FPEB dose with pH indicator paper; assay type: physicochemical; conditions: formulated dose, n = 3
Protocol: The pH of [^18F]FPEB was determined by applying a few drops of the dose to pH indicator paper. Match the reference color and the pH value conformed to our release specifications (pH=4.5-8.5).

Compound: N#Cc1cc(C#Cc2ccccn2)cc(I=C2C(=O)OC3(CCCC3)OC2=O)c1 [Example 31, 3-((7,9-dioxo-6,10-dioxaspiro[4.5]decan-8-ylidene)-1.3-iodanyl)-5-(pyridin-2-ylethynyl)benzonitrile]
melting point: 145 to 150 °C (dec.)

Compound: NC(=O)c1cc(F)cc(C#Cc2ccccn2)c1 [Example 32, 3-fluoro-5-(pyridin-2-ylethynyl)benzamide]
melting point: 175 to 176 °C

Compound: N#Cc1cc([18F])cc(C#Cc2ccccn2)c1 [[^18F]FPEB, [^18F]3-fluoro-5-(pyridin-2-ylethynyl)benzonitrile]
Sterility Testing [2]: No evidence of growth at 14 days post
pH Assay [3]: 5-5.5

Second part, the compound after the results:

stability of precursor ([1]; room temperature / solid state): stable crystalline solid
Compound: O=C1OC2(CCCCC2)OC(=O)C1=Ic1ccc(-c2ccccc2)cc1 [Example 10a, 1,5-dioxaspiro[5.5]undecane-2,4-dion-[1,1′biphenyl-4-iodonium]ylide]

thermal stability under the radiolabelling conditions ([1]; DMF, 120° C., 10 min): good thermal stability
Compound: O=C1OC2(CCCC2)OC(=O)C1=Ic1ccc(-c2ccccc2)cc1 [Example 10c, 6,10-dioxaspiro[4.5]decane-7,9-dion-[1,1′-biphenyl-4-iodonium]ylide]

From patent US9957231B2, “Iodine(II)-mediated radiofluorination” (The General Hospital Corporation, priority 2014, dated 2018)
